# From US20260226006A1, “INDOLE COMPOUND, PREPARATION METHOD THEREFOR AND USE THEREOF” (SUZHOU MERNA THERAPEUTICS CO. LTD, priority 2023, published 2026)
# Key:
# HaCat cells = test: m6A methylation level of human HaCat keratinocytes, EpiQuik m6A RNA methylation quantification kit (Example 20); type: cell-based; conditions: for m6A fold change relative to control group 1 / fold induction at 0.05 µM: HaCat cells, 24 hours; for m6A methylation level of human HaCat keratinocytes / fold induction at 0.05 µM: 50 nM drug alone; for fold induction at 0.05 µM: Homo sapiens, read-out: m6A fold change relative to control group 1
# Description: HaCat cells were cultured in a DMEM culture medium containing 10% fetal bovine serum, 100 U/mL penicillin, and 100 μg/mL streptomycin. Culture dishes were placed in an incubator containing 5% CO2 for culture at 37° C. for 24 hours. An equal volume of DMSO was added in control group 1, 50 nM sorafenib, capecitabine, docetaxel, and osimertinib were respectively added in control groups A, B, C, and D, and 400 nM test compounds or nicotinamide were respectively added in sample groups A1-17, B1-17, C1-17, and D1-17 after the addition of 50 nM corresponding compounds. The cells were continuously cultured for 24 hours, washed with PBS, and then collected by high-speed centrifugation. Total RNA was extracted using a Trizol reagent (Sigma Aldrich), and RNA m6A methylation of a sample was quantitatively detected using an EpiQuik m6A RNA methylation quantification kit. The concentrations of positive control samples for a standard curve were 0.01 ng/μl, 0.02 ng/μl, 0.05 ng/μl, 0.1 ng/μl, 0.2 ng/μl, and 0.5 ng/μl. The absorbance at 450 nm was read using a microplate reader (Tecan GENios). A quantitative calculation formula for m6A is as follows:
# m6A (ng)=(absorbance of sample well−absorbance of background well)/slope of standard curve m6A (%)=m6A (ng)/RNA amount of sample (ng)*100%.
# paw plantar skin of rats = test: Rat models with hand-foot skin reaction, topical ointment (Example 22); type: in vivo, SD rats; conditions: for Incidence rate / Incidence rate (successful modeling rate for hand-foot skin reaction): 30 days; for Incidence rate (successful modeling rate for hand-foot skin reaction): modeling drug alone by gavage once daily, no ointment, SD rats
# Description: After adaptive feeding for one week, SD rats (with a body weight of approximately 200 g) were randomly divided into groups according to the body weight, with 12 rats in each group. Modeling drugs (including sorafenib, erlotinib, afatinib, and osimertinib) were respectively dissolved in a solution containing 5% of DMSO, 45% of PEG400, and 50% of H2O, and the modeling drugs were diluted to required concentrations and then administered once daily by gavage at doses shown in Table 3. After administration by gavage for 1 hour, 0.05 g of ointments containing different mass proportions of test compounds were evenly applied to left paws of the rats, a blank matrix ointment was applied to right paws of the rats to serve as a self-control, and no ointment was applied to the rats in a blank control group. After drug application, four limbs were continuously immobilized for 2 hours, then wiped with clean water to remove the residual drugs, removed from immobilization, and restored to free movement. The modeling drugs, the blank matrix ointment, and the ointments containing the test compounds were all administered once daily. After continuous administration for 30 days, the rats were euthanized, and paw plantar skin tissues were collected, fixed in 10% neutral formalin, […]. The ointments for the test compounds were prepared by mixing the compounds, white beeswax, white petrolatum, and light liquid paraffin in specific ratios (weight ratios of 3 ointments were respectively 1:18:58:23, 3:18:57:22, and 10:20:40:30). The blank matrix ointment was prepared by mixing white beeswax, white petrolatum, and light liquid paraffin in a specific ratio (weight ratio of 18:60:22).
# Tissue staining: After dewaxing and rehydration, the paw plantar skin tissue sections of the above rats were stained in a hematoxylin solution for several minutes, cleaned, and placed in 1% acid alcohol for soaking until the sections faded to light blue-red. After cleaning with running water for 5 minutes, the sections were stained with eosin for 2-3 minutes, cleaned to remove excess dyes, dehydrated, then permeabilized by adding xylene for several minutes, and sealed and fixed with a neutral resin. The stratum corneum was observed under an optical microscope, and the thickness of the epidermal stratum corneum was measured using Dmetrix software.
# Immunohistochemical staining: After dewaxing and hydration, the paw plantar skin tissue sections of the above rats were incubated with 3% H2O2 at room temperature for 30 minutes and blocked with 10% goat serum for 30 minutes after antigen retrieval. A KRT1 antibody (Abcam, ab93652) and a Loricrin antibody (Abcam, ab183646) were added dropwise, the sections were incubated overnight at 4° C., and an HRP secondary antibody (ZSGB-BIO, PV-6001) and a DAB kit (ZSG-BIO, ZLI9017) were added for color development. The sections were re-stained with hematoxylin, cleaned, and sealed and fixed with a neutral resin, and the expression amounts of KRT1 and Loricrin were observed under an optical microscope.
# An incidence rate calculation method involves a proportion of animals in each group meeting the above criteria for determining successful modeling, that is, incidence rate=(number of successfully modeled rats/total number of rats in the group)*100%. […]
# HaCaT keratinocytes = test: Inhibition of HBEGF-induced differentiation of HaCaT keratinocytes, marker mRNA by RT-PCR (Example 21); type: cell-based, human; conditions: 2.5 ng/mL human recombinant HBEGF protein + test compound, 24 hours
# Description: Human HaCaT keratinocytes were cultured in a DMEM culture medium containing 10% fetal bovine serum, 100 U/mL penicillin, and 100 µg/mL streptomycin. The cells were seeded into a 96-well plate at a density of […] and placed in an incubator containing 5% carbon dioxide for culture at 37° C. for 24 hours. An equal volume of DMSO was added into control well 1, a 2.5 ng/mL human recombinant HBEGF protein (Abcam, ab205523) was added into control well 2, and a 2.5 ng/mL human recombinant HBEGF protein and corresponding concentrations of test compounds were added into sample wells. The cells were continuously cultured for 24 hours, washed with PBS, and then collected by high-speed centrifugation. Total RNA was extracted using a Trizol reagent (Sigma Aldrich). 1 μg of RNA was reverse-transcribed into cDNA using a cDNA reverse transcription kit (Transgene Biotech, AT311-03). 1.25 μL of a primer (with a primer sequence shown in Table 2), 10 μL of an iTag Universal SYBR Green supermix (Bio-Rad, 172-S125), and an appropriate amount of DEPC ultrapure water were added to formulate 20 μL of a reaction solution to perform an RT-PCR reaction. Upon completion of the reaction, the reaction solution was subjected to agarose gel electrophoresis to determine the mRNA expression amounts of keratinocyte differentiation markers KRT1, KRT10, Loricrin, and Involucrin.
# [1] = 50 nM capecitabine + 400 nM test compound
# [2] = 50 nM docetaxel + 400 nM test compound
# [3] = 50 nM osimertinib + 400 nM test compound
# [4] = 50 nM sorafenib + 400 nM test compound
# [5] = paw plantar skin of modeled rats, topical ointment
# [6] = successfully modeled rats, modeling drug
structure (smiles),measurement,setting,value
"NC(=O)[C@H]1CCCc2c1[nH]c1ccc(Cl)cc21 [Compound 2b, (S)-6-chloro-2,3,4,9-tetrahydro-1H-carbazole-1-carboxamide]",abnormal increase in the RNA m6A level of human keratinocytes caused by chemotherapeutic drugs and multikinase inhibitors,HaCat cells; 400 nM compound after 50 nM drug,effectively inhibit
same,m6A fold change relative to control group 1,HaCat cells; [1],1.1
same,m6A fold change relative to control group 1,HaCat cells; [2],1.0
same,m6A fold change relative to control group 1,HaCat cells; [3],1.2
same,m6A fold change relative to control group 1,HaCat cells; [4],1.4
same,Incidence rate,"paw plantar skin of rats; afatinib 50 mg/kg, 1% compound ointment on left paw, left paw",3/12 (25%)
same,Incidence rate,"paw plantar skin of rats; afatinib 50 mg/kg, 1% compound ointment on left paw, right paw (blank matrix ointment)",9/12 (75%)
same,Incidence rate,"paw plantar skin of rats; afatinib 50 mg/kg, 3% compound ointment on left paw, left paw",2/12 (17%)
same,Incidence rate,"paw plantar skin of rats; afatinib 50 mg/kg, 3% compound ointment on left paw, right paw (blank matrix ointment)",4/12 (33%)
same,Incidence rate,"paw plantar skin of rats; afatinib 50 mg/kg, 10% compound ointment on left paw, left paw",0/12 (0%)
same,Incidence rate,"paw plantar skin of rats; afatinib 50 mg/kg, 10% compound ointment on left paw, right paw (blank matrix ointment)",3/12 (25%)
same,incidence rate of hand-foot skin reaction at a drug application site,paw plantar skin of rats; compounds at a mass content of 1% in ointment,significantly decrease
same,incidence rate of hand-foot skin reaction in all paws of the rats,paw plantar skin of rats; compounds at mass contents of 3% and 10% in ointment,significantly decrease
same,Incidence rate,"paw plantar skin of rats; erlotinib 70 mg/kg, 1% compound ointment on left paw, left paw",3/12 (25%)
same,Incidence rate,"paw plantar skin of rats; erlotinib 70 mg/kg, 1% compound ointment on left paw, right paw (blank matrix ointment)",10/12 (83%)
same,Incidence rate,"paw plantar skin of rats; erlotinib 70 mg/kg, 3% compound ointment on left paw, left paw",2/12 (17%)
same,Incidence rate,"paw plantar skin of rats; erlotinib 70 mg/kg, 3% compound ointment on left paw, right paw (blank matrix ointment)",5/12 (42%)
same,Incidence rate,"paw plantar skin of rats; erlotinib 70 mg/kg, 10% compound ointment on left paw, left paw",1/12 (8%)
same,Incidence rate,"paw plantar skin of rats; erlotinib 70 mg/kg, 10% compound ointment on left paw, right paw (blank matrix ointment)",4/12 (33%)
same,Incidence rate,"paw plantar skin of rats; osimertinib 60 mg/kg, 1% compound ointment on left paw, left paw",2/12 (17%)
same,Incidence rate,"paw plantar skin of rats; osimertinib 60 mg/kg, 1% compound ointment on left paw, right paw (blank matrix ointment)",8/12 (67%)
same,Incidence rate,"paw plantar skin of rats; osimertinib 60 mg/kg, 3% compound ointment on left paw, left paw",2/12 (17%)
same,Incidence rate,"paw plantar skin of rats; osimertinib 60 mg/kg, 3% compound ointment on left paw, right paw (blank matrix ointment)",4/12 (33%)
same,Incidence rate,"paw plantar skin of rats; osimertinib 60 mg/kg, 10% compound ointment on left paw, left paw",0/12 (0%)
same,Incidence rate,"paw plantar skin of rats; osimertinib 60 mg/kg, 10% compound ointment on left paw, right paw (blank matrix ointment)",3/12 (25%)
same,"formation of blisters, inflammatory cell infiltration in the dermis and skin congestion (pathological scoring)",paw plantar skin of rats; [5],effectively improve
same,"formation of blisters, inflammatory cell infiltration in the dermis and skin congestion (tissue staining)",paw plantar skin of rats; [5],effectively improve
same,Incidence rate,"paw plantar skin of rats; sorafenib 100 mg/kg, 1% compound ointment on left paw, left paw",2/12 (17%)
same,Incidence rate,"paw plantar skin of rats; sorafenib 100 mg/kg, 1% compound ointment on left paw, right paw (blank matrix ointment)",9/12 (75%)
same,Incidence rate,"paw plantar skin of rats; sorafenib 100 mg/kg, 3% compound ointment on left paw, left paw",2/12 (17%)
same,Incidence rate,"paw plantar skin of rats; sorafenib 100 mg/kg, 3% compound ointment on left paw, right paw (blank matrix ointment)",4/12 (33%)
same,Incidence rate,"paw plantar skin of rats; sorafenib 100 mg/kg, 10% compound ointment on left paw, left paw",0/12 (0%)
same,Incidence rate,"paw plantar skin of rats; sorafenib 100 mg/kg, 10% compound ointment on left paw, right paw (blank matrix ointment)",4/12 (33%)
same,differentiation of keratinocytes both in vitro and in vivo,paw plantar skin of rats; summary of Examples 21 and 22,effectively inhibit
same,stratum corneum thickness of the paw plantar skin of the modeled rats,"paw plantar skin of rats; topical ointment, modeled rats",effectively decrease
same,"mRNA expression amounts of HaCaT differentiation markers KRT1, KRT10, Loricrin, and Involucrin",HaCaT keratinocytes,significantly inhibited
"C=CC(=O)Nc1cc(Nc2nccc(-c3cn(C)c4ccccc34)n2)c(OC)cc1N(C)CCN(C)C [Osimertinib, osimertinib, reference compound]",m6A methylation level of human HaCat keratinocytes,HaCat cells,significantly increase
same,fold induction at 0.05 µM,HaCat cells,4.8
same,KRT1 and Loricrin in tissues (immunohistochemical staining),"paw plantar skin of rats; rat, in vivo",significantly increased
same,stratum corneum thickness of the paw plantar skin,"paw plantar skin of rats; rat, in vivo",significantly higher than that of normal rats
"NC(=O)c1cccnc1 [Nicotinamide, nicotinamide]",m6A fold change relative to control group 1,HaCat cells; [1],4.5
same,m6A fold change relative to control group 1,HaCat cells; [2],5.4
same,m6A fold change relative to control group 1,HaCat cells; [3],5.0
same,m6A fold change relative to control group 1,HaCat cells; [4],4.7
"CNC(=O)c1cc(Oc2ccc(NC(=O)Nc3ccc(Cl)c(C(F)(F)F)c3)cc2)ccn1 [Sorafenib, sorafenib, reference compound]",m6A methylation level of human HaCat keratinocytes,HaCat cells,significantly increase
same,fold induction at 0.05 µM,HaCat cells,4.5
same,Incidence rate (successful modeling rate for hand-foot skin reaction),paw plantar skin of rats,9/12 (75%)
same,Incidence rate (successful modeling rate for hand-foot skin reaction),paw plantar skin of rats; listed as sorafenib,75%
same,KRT1 and Loricrin in tissues (immunohistochemical staining),paw plantar skin of rats; [6],significantly increased
same,stratum corneum thickness of the paw plantar skin,paw plantar skin of rats; [6],significantly higher than that of normal rats
